Data from ChEMBL document CHEMBL4507258 (2021).

Experiments:
Settings in all cases: Compound concentration 1000.0 nM
[1] = molecular target: Cyclin-dependent kinase 15 (Homo sapiens) (UniProt Q96Q40)
[2] = molecular target: Serine/threonine-protein kinase SIK2 (Homo sapiens) (UniProt Q9H0K1)
[3] = molecular target: Tyrosine-protein kinase Lyn (Homo sapiens) (UniProt P07948)
[4] = tested on: Tyrosine-protein kinase ABL1 (Homo sapiens), P00519 [Y253F]
[5] = molecular target: Megakaryocyte-associated tyrosine-protein kinase (Homo sapiens) (UniProt P42679)
[6] = molecular target: Dual specificity mitogen-activated protein kinase kinase 5 (Homo sapiens) (UniProt Q13163)
[7] = molecular target: Tyrosine-protein kinase Blk (Homo sapiens) (UniProt P51451)
[8] = molecular target: Vascular endothelial growth factor receptor 2 (Homo sapiens) (UniProt P35968)
[9] = molecular target: Serine/threonine-protein kinase PAK 2 (Homo sapiens) (UniProt Q13177)
[10] = tested on: Tyrosine-protein kinase ABL1 (Homo sapiens), P00519 [F317L]
[11] = molecular target: Calcium/calmodulin-dependent protein kinase type II subunit alpha (Homo sapiens) (UniProt Q9UQM7)
[12] = molecular target: Mitogen-activated protein kinase 1 (Homo sapiens) (UniProt P28482)
[13] = molecular target: MAP kinase-interacting serine/threonine-protein kinase 2 (Homo sapiens) (UniProt Q9HBH9)
[14] = molecular target: Activated CDC42 kinase 1 (Homo sapiens) (UniProt Q07912)
[15] = tested on: Tyrosine-protein kinase ABL1 (Homo sapiens), P00519 [F317L]; remark: listed apart in the source
[16] = molecular target: Dual specificity mitogen-activated protein kinase kinase 7 (Homo sapiens) (UniProt O14733)
[17] = molecular target: Testis-specific serine/threonine-protein kinase 1 (Homo sapiens) (UniProt Q9BXA7)
[18] = molecular target: Receptor tyrosine-protein kinase erbB-3 (Homo sapiens) (UniProt P21860)
[19] = molecular target: Rho-associated protein kinase 2 (Homo sapiens) (UniProt O75116)
[20] = molecular target: Insulin-like growth factor 1 receptor (Homo sapiens) (UniProt P08069)
[21] = molecular target: Aurora kinase B (Homo sapiens) (UniProt Q96GD4)
[22] = molecular target: 5'-AMP-activated protein kinase catalytic subunit alpha-2 (Homo sapiens) (UniProt P54646)
[23] = molecular target: Ephrin type-A receptor 7 (Homo sapiens) (UniProt Q15375)
[24] = molecular target: Vascular endothelial growth factor receptor 1 (Homo sapiens) (UniProt P17948)
[25] = molecular target: Cyclin-dependent kinase 17 (Homo sapiens) (UniProt Q00537)
[26] = molecular target: Muscle, skeletal receptor tyrosine-protein kinase (Homo sapiens) (UniProt O15146)
[27] = molecular target: Cyclin-dependent kinase-like 3 (Homo sapiens) (UniProt Q8IVW4)
[28] = molecular target: Angiopoietin-1 receptor (Homo sapiens) (UniProt Q02763)
[29] = molecular target: Ephrin type-A receptor 1 (Homo sapiens) (UniProt P21709)
[30] = molecular target: Aurora kinase C (Homo sapiens) (UniProt Q9UQB9)
[31] = molecular target: AP2-associated protein kinase 1 (Homo sapiens) (UniProt Q2M2I8)
[32] = molecular target: Serine/threonine-protein kinase PLK2 (Homo sapiens) (UniProt Q9NYY3)
[33] = molecular target: Phosphatidylinositol 5-phosphate 4-kinase type-2 gamma (Homo sapiens) (UniProt Q8TBX8)
[34] = molecular target: Cyclin-dependent kinase 3 (Homo sapiens) (UniProt Q00526)
[35] = molecular target: Fibroblast growth factor receptor 1 (Homo sapiens) (UniProt P11362)
[36] = molecular target: Mitogen-activated protein kinase kinase kinase 2 (Homo sapiens) (UniProt Q9Y2U5)
[37] = molecular target: Wee1-like protein kinase 2 (Homo sapiens) (UniProt P0C1S8)
[38] = molecular target: Insulin receptor (Homo sapiens) (UniProt P06213)
[39] = molecular target: Serine/threonine-protein kinase ULK3 (Homo sapiens) (UniProt Q6PHR2)
[40] = molecular target: Tyrosine-protein kinase ABL2 (Homo sapiens) (UniProt P42684)
[41] = molecular target: Cyclin-dependent kinase 4 (Homo sapiens) (UniProt P11802)
[42] = molecular target: Homeodomain-interacting protein kinase 1 (Homo sapiens) (UniProt Q86Z02)
[43] = molecular target: Mitogen-activated protein kinase kinase kinase kinase 2 (Homo sapiens) (UniProt Q12851)
[44] = molecular target: Tyrosine-protein kinase SYK (Homo sapiens) (UniProt P43405)
[45] = molecular target: cGMP-dependent protein kinase 2 (Homo sapiens) (UniProt Q13237)
[46] = molecular target: Serine/threonine-protein kinase MRCK gamma (Homo sapiens) (UniProt Q6DT37)

Chain of Mitogen-activated protein kinase kinase kinase kinase 2 (Homo sapiens) (Q12851 whole entry): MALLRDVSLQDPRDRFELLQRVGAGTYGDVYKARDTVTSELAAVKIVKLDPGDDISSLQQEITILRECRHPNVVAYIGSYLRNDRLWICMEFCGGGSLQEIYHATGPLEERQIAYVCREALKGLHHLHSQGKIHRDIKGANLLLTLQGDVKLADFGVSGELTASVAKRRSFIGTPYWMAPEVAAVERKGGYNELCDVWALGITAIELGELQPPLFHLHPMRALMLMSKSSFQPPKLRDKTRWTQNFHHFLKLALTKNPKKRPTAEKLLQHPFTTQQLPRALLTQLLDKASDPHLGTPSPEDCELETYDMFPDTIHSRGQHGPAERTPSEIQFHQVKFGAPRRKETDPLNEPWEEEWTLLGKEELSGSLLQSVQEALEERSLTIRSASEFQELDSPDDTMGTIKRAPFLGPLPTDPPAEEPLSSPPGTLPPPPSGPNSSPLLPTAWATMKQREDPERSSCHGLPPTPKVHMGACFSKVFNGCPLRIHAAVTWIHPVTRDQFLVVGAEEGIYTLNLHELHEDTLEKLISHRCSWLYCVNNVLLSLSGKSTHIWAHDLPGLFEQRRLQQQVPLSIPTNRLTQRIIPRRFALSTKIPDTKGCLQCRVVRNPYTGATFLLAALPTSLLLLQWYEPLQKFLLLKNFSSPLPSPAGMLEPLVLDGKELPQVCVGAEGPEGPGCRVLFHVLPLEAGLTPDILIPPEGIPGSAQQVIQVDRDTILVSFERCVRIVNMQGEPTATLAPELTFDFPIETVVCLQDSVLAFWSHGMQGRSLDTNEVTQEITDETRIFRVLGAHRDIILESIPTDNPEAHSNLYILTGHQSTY
Chain of cGMP-dependent protein kinase 2 (Homo sapiens) (Q13237 whole entry): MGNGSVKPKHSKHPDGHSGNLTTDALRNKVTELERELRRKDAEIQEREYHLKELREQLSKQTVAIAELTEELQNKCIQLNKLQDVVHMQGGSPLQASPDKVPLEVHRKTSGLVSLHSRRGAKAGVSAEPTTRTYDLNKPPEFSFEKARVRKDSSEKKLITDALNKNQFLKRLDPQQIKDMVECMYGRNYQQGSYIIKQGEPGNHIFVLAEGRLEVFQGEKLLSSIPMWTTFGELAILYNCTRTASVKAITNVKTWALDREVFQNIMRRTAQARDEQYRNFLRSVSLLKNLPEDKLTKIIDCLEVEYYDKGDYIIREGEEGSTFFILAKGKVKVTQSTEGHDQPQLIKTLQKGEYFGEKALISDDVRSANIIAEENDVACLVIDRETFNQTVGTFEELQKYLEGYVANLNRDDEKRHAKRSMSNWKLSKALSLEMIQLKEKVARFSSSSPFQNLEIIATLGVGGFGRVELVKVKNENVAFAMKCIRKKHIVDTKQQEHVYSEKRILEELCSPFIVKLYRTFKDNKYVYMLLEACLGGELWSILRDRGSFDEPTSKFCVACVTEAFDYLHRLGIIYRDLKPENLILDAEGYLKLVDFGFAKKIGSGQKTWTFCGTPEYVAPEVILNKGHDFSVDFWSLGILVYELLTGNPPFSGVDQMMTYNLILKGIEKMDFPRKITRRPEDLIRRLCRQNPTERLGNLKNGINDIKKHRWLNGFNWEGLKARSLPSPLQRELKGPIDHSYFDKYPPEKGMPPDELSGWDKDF
Chain of Cyclin-dependent kinase 3 (Homo sapiens) (Q00526 whole entry, looked up): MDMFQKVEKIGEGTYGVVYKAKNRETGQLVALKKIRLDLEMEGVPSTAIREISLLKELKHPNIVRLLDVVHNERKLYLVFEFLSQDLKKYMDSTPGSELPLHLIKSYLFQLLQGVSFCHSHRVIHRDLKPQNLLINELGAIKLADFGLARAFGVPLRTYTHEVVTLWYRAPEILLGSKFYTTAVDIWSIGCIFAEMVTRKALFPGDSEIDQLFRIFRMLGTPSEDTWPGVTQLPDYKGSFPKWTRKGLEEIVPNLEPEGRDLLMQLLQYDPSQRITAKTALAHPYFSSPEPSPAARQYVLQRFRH
Chain of Tyrosine-protein kinase Lyn (Homo sapiens) (P07948 2-512 limits assumed): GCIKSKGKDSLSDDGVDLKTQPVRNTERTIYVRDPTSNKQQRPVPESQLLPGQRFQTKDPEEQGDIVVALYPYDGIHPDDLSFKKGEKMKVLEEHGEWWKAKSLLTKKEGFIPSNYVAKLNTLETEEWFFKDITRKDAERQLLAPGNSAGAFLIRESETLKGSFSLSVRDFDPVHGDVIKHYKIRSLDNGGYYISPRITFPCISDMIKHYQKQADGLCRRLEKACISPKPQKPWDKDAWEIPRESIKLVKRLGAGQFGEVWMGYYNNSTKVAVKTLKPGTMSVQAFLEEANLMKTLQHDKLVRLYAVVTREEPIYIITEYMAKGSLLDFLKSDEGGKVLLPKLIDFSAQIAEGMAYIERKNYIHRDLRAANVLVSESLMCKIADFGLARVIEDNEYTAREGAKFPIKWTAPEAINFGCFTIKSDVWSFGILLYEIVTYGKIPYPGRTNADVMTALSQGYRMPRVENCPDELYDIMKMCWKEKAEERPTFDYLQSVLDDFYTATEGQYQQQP
Chain of Serine/threonine-protein kinase ULK3 (Homo sapiens) (Q6PHR2 whole entry): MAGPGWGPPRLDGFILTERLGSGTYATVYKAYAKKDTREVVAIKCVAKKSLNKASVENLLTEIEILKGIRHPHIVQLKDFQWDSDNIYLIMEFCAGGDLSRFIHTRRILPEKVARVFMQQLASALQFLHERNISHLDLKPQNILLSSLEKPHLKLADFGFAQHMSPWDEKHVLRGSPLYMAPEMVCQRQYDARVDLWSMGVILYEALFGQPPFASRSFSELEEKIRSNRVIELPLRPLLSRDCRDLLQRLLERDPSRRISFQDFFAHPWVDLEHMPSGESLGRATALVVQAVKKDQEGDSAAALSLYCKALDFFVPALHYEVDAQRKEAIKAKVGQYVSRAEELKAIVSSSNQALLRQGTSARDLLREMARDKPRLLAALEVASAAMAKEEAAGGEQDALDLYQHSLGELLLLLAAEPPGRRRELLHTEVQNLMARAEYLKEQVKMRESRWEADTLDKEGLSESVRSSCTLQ
Chain of Cyclin-dependent kinase 4 (Homo sapiens) (P11802 whole entry): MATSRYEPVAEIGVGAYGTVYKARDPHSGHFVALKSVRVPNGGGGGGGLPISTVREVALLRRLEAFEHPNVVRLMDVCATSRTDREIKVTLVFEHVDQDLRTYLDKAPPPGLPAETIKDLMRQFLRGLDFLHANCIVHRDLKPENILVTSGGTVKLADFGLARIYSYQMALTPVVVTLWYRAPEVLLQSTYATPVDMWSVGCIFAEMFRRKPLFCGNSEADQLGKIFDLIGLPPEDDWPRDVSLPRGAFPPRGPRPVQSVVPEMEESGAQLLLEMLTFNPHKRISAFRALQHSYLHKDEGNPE
Chain of AP2-associated protein kinase 1 (Homo sapiens) (Q2M2I8 whole entry, looked up): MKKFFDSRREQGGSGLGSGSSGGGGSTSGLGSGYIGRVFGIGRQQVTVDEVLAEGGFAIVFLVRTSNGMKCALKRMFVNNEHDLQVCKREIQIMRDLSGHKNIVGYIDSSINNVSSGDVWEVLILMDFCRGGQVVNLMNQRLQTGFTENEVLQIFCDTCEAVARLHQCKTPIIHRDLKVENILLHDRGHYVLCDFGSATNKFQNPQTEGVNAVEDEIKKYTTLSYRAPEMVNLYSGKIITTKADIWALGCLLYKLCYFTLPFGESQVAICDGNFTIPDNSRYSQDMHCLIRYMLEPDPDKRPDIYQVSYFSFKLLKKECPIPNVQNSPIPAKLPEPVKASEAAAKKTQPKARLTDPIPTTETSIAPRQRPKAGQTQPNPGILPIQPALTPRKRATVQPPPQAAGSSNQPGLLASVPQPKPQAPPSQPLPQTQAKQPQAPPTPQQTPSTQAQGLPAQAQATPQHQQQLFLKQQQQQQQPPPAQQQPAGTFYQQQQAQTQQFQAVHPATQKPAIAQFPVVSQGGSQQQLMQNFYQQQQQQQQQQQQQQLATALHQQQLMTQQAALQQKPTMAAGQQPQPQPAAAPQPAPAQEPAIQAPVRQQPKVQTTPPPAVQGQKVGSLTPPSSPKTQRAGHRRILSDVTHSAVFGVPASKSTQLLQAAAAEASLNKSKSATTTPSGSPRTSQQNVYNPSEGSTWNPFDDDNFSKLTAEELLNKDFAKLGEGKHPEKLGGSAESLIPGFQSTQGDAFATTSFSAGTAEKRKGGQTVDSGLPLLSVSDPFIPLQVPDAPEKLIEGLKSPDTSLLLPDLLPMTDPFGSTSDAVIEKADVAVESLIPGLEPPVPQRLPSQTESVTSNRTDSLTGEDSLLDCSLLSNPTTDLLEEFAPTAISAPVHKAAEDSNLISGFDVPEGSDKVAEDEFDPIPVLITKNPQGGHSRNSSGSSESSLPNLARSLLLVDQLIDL
Chain of Serine/threonine-protein kinase PLK2 (Homo sapiens) (Q9NYY3 whole entry, looked up): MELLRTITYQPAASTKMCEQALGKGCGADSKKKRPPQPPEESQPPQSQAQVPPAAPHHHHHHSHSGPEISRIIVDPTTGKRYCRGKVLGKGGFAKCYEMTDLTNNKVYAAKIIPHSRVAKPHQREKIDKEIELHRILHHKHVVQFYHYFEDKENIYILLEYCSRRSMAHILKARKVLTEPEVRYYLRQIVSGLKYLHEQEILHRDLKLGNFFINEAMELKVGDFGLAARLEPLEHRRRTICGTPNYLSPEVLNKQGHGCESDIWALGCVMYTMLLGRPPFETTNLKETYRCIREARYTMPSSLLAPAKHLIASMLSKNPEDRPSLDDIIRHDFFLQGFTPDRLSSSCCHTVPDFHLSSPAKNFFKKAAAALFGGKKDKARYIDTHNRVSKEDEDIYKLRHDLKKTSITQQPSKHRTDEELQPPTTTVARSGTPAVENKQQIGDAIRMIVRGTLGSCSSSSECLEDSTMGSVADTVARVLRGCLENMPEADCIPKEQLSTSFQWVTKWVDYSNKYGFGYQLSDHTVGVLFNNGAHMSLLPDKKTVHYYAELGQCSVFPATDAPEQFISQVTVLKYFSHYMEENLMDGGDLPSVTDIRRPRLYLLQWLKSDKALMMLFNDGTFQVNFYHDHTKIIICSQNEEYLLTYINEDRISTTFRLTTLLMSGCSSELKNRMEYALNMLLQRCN

CCCCN(CCCC)C(=O)CN1C[C@H](c2cc(OC)c3c(c2)OCO3)[C@@H](C(=O)O)[C@@H]1CC(C)(C)CCC [ABT-546]
residual activity [1]: 100% | residual activity [2]: 100% | residual activity [3]: 100% | residual activity [4]: 86.7% | residual activity [5]: 62.8% | residual activity [6]: 100% | residual activity [7]: 95.8% | residual activity [8]: 88.7% | residual activity [9]: 100% | residual activity [10]: 96.7% | residual activity [11]: 100% | residual activity [12]: 100% | residual activity [13]: 83% | residual activity [14]: 100% | residual activity [15]: 100% | residual activity [16]: 90.8% | residual activity [17]: 100% | residual activity [18]: 100% | residual activity [19]: 85.2% | residual activity [20]: 100% | residual activity [21]: 100% | residual activity [22]: 100% | residual activity [23]: 100% | residual activity [24]: 100% | residual activity [25]: 99.3% | residual activity [26]: 100% | residual activity [27]: 100% | residual activity [28]: 90.5% | residual activity [29]: 92.6% | residual activity [30]: 100% | residual activity [31]: 100% | residual activity [32]: 67.1% | residual activity [33]: 100% | residual activity [34]: 100% | residual activity [35]: 89.4% | residual activity [36]: 81.2% | residual activity [37]: 100% | residual activity [38]: 75.8% | residual activity [39]: 86.7% | residual activity [40]: 100% | residual activity [41]: 42.7% | residual activity [42]: 100% | residual activity [43]: 54.4% | residual activity [44]: 100% | residual activity [45]: 100% | residual activity [46]: 100%

CCCCN(CCCC)C(=O)CN1C[C@@H](c2cc(OC)c3c(c2)OCO3)[C@H](C(=O)O)[C@H]1CC(C)(C)CCC [A-545]
residual activity [1]: 93.8% | residual activity [2]: 100% | residual activity [3]: 75.1% | residual activity [4]: 100% | residual activity [5]: 100% | residual activity [6]: 100% | residual activity [7]: 100% | residual activity [8]: 88.1% | residual activity [9]: 83.5% | residual activity [10]: 93.5% | residual activity [11]: 100% | residual activity [12]: 82.1% | residual activity [13]: 96.5% | residual activity [14]: 91.6% | residual activity [15]: 100% | residual activity [16]: 88.6% | residual activity [17]: 100% | residual activity [18]: 100% | residual activity [19]: 100% | residual activity [20]: 97% | residual activity [21]: 100% | residual activity [22]: 92.6% | residual activity [23]: 100% | residual activity [24]: 100% | residual activity [25]: 93.3% | residual activity [26]: 78.7% | residual activity [27]: 83.6% | residual activity [28]: 100% | residual activity [29]: 85.5% | residual activity [30]: 100% | residual activity [31]: 100% | residual activity [32]: 98.4% | residual activity [33]: 80.7% | residual activity [34]: 88.1% | residual activity [35]: 100% | residual activity [36]: 84.6% | residual activity [37]: 89.1% | residual activity [38]: 89% | residual activity [39]: 90.7% | residual activity [40]: 100% | residual activity [41]: 100% | residual activity [42]: 77.3% | residual activity [43]: 100% | residual activity [44]: 100% | residual activity [45]: 100% | residual activity [46]: 94.4%
